The assay deals with E. coli. Nature of the assay: Classical method of serial antibiotic dilution for MIC. The assay is classed as cell-based. As to conditions: FIG. 7E. As to the method:
FIGS. 7A-7E: (7A-7D) Scatter plots, with best fit lines of optical output measured by intensity shift as a function of time, performed on a series of 6 semi-stable sucrose coated grating units in parallel inoculated with E. coli cells and treated an hour later with (7A) 0 μg, (7B) 2.5 μg, (7C) 5.0 μg, and (7D) 7.5 μg of G418. (7E) A photograph of the classical serial dilution method for determining the MIC of G418 for treating E. coli.
By monitoring the diffraction over time, a range for minimum inhibitory concentration (MIC) was established (FIG. 7A-D). A control well received no antibiotic and normal logarithmic growth was observed (FIG. 7A). […] This would place the MIC at between 2.5 and 5.0 which was the same as the range (2.3-4.7 μg) found by the classical method of serial antibiotic dilution (FIG. 7E).

The structures appear in SMILES notation.

With `CN[C@@H]1[C@@H](O)[C@@H](O[C@@H]2[C@@H](O)[C@H](O[C@H]3O[C@H]([C@@H](C)O)[C@@H](O)[C@H](O)[C@H]3N)[C@@H](N)C[C@H]2N)OC[C@]1(C)O` [G418], the “MIC range found by classical serial antibiotic dilution” value lay in the range of 2.3 to 4.7 µg.

(Values after patent US20220128557A1, “[…] METHODS FOR REAL-TIME CELL MONITORING” (PHENOFAST LTD., priority 2019, published 2022).)
